# From patent US9107879B1, “Methods of increasing the cytotoxicity of chemotherapeutic agents with multisubstrate inhibitors of histone, protein-lys, polyamine acetylation, and polyamine metabolism” (Vanderbilt University, priority 2010, dated 2015)
# How the values were obtained:
# MCF7 breast cancer cells = details: 1a increasing concentrations; camptothecin 5 nM 18 hour
# Procedure: (A) [^3H]-thymidine incorporation into DNA of H358 cells (left panel) or MCF-7 cells (right panel) during a 6 hour pulse ending at the indicated time points after initiation of treatment. Treatments were 50 μM 1a alone, 5 nM camptothecin alone (CPT, 18 hours), 50 μM 1a+5 nm CPT (18 hours). Control cells were left untreated. (B) 2-day 96-well viability assays of H358 cells (left panel) or MCF-7 cells (right panel) grown in presence of increasing concentrations of 1a (continuous), with or without an 18-hour treatment with 5 nM camptothecin (CPT). Cell viability, represented as a percent of untreated cell viability (i.e., no 1a, no CPT), was determined 2 days post-start of treatment by the MTS bioconversion assay (MTS=(3-(4,5′-dimethylthiazol-2-yl)-5-(3-carboxymethoxylphenyl-2-(4-sulfophenyl)-2H-tetrazolium salt). Each data point represents the average of triplicate wells. Assays were carried out under conditions such that untreated cells remained in exponential growth. (C) [^3H]-thymidine incorporation into DNA of H358 cells carried out as in part “A”. Treatment consisted of 1a alone (50 μM), or cisplatin (2 μM, 1 hour, 15 minutes) alone or together with 1a (Panel 1); or UVC (40 J/m^2), alone or together with 1a (Panel 2); or 5-fluorouracil (5FU, 2 μM, 18 hours) alone or together with 1a (Panel 3), or Taxotere™ (5 nM, 18 hours), alone or together with 1a (Panel 4). Control cells were left untreated. Symbols are as follows: (-◯-) untreated control; (-●-) 50 μM 1a, (-∇-) drug or UVC alone; (-▾-) combination 1a+drug or UVC.
# Viability was measured 3 days after the start of treatment and is expressed as a percentage of control (untreated) cell viability.
# Each point is average of triplicates.
# Date of exp: 7-17-2010; located p.21 in Hat notebook: KB-2 (2010-2011).
# Cells were plated in 96-well plates (3000 cells per well) and incubated 18 hours with or without 5 nM camptothecin (Sigma, St Louis, Mo.). Triplicate wells were then treated with varying doses of 1a (from 0-50 μM). Control cells received neither 1a nor camptothecin. 2-day viability was determined by the MTS assay as previously (Saadatmandi et al., 2002, Cancer Gene Therapy, 9: 830-9) and expressed as a percentage of control cell viability.
# The present inventors carried out 96-well viability assays as we have previously described (Saadatmandi et al, Cancer Gene Therapy (2002) 9:830-9), in which MCF7 breast cancer cells were plated at 3000 cells per well. After overnight attachment, triplicate wells were treated with increasing doses of inhibitor 1a. Control wells were left untreated. After 3 days, cell viability was measured by the MTS assay, which measures the bioconversion of an uncolored substrate to a colored formazan derivative, and is proportional to cell number. […]
# γ-H2A.X in H358 cells = test: double strand break / gamma-H2A.X Western and co-immunoprecipitation; type: cell-based; details: 18 hours post-start; 1a 50 μM, 5FU 2 μM, cisplatin 2 μM, camptothecin 5 nM
# Procedure: Also shown are controls for no treatment (“c” minus 1a) or treatment with 1a only (“c” plus 1a). Each lane represents 60 μg protein. […] Each lane represents 60 μg protein.
# To measure DSB repair, cells were incubated for 1 hour with 10 μM camptothecin to induce DSBs, followed by incubation in the presence or absence of 50 μM 1a. At fixed times, histones were prepared by extraction in 0.2M H2SO4 as described previously and 50 μg extract was analyzed by 12% SDS-PAGE followed Western analysis as described previously, using rabbit polyclonal anti-γ-H2A.X [phosphor ser 139] (Novus Biologicals, Littleton, Colo.) or anti-H3 (Upstate Biotechnology, Inc, Lake Placid, N.Y.). Band intensities were quantitated digitally. To study acetylation of γ-H2A.X, we carried out co-immunoprecipitation analysis using 50 μg extract protein in immunoprecipitation buffer (10 mM sodium phosphate pH 7, 0.15 M NaCl, 0.1% SDS, 1% NP40, 1% sodium deoxycholate, aprotinin, 1 mM PMSF, complete protease inhibitors (Roche) using immobilized anti-acetyl-lysine (Millipore, Temecula, Calif.) in the immunoprecipitation step. The immunoprecipitated material was then analyzed as for Western analysis using anti γ-H2A.X.
# Double strand breaks (DSBs) can be formed by a variety of DNA damaging agents, including camptothecin, cisplatin, 5FU, and UVC radiation (Avemann K, et al., 1988, Mol Cell Biol, 8: 3026-34; Bogdanov K V, et al. 1997, Br J Haematol, 98:869-72; Pavon M A, et al., Int J Cancer, 2008, 123:1068-79) implying that DSB repair may play a role in reducing their cellular toxicity. To examine how 1a treatment affects DSB repair in H358 cells we made use of the fact that the histone variant, H2A.X becomes phosphorylated at sites of double strand breaks (denoted γ-H2A.X), and can be detected by immunoblot analysis of acid extracted cells (Rogaku E P, et al., 1999, J Cell Biol, 146:905-16). […] Total H3 levels and H2A.X levels (control) are unaffected by these treatments (FIG. 4B). […]
smiles,measurement,setting,value
CC[C@@]1(O)C(=O)OCc2c1cc1n(c2=O)Cc2cc3ccccc3nc2-1 [camptothecin],"2-day cumulative cell viability relative to untreated, single agent",MCF7 breast cancer cells,no effect
same,"γ-H2A.X level, single agent",γ-H2A.X in H358 cells,weakly detectable
